Some results are limits rather than exact numbers.

A short description of the first assay: Inhibition of wild type CXCR1 transfected in mouse L1.2 cells assessed as inhibition of CXCL8-induced cell migration pretreated for 15 mins measured after 4 hrs.
By IC50 is commonly meant the concentration that gives 50% inhibition. On to `O=C(O)Cc1ccccc1Nc1c(Cl)cccc1Cl` [{2-[(2,6-dichlorophenyl)amino]phenyl}acetic acid], for which the IC50 amounted to 0.012 µM.

The next assay in a line: Inhibition of CXCL8-induced chemotaxis in human polymorphonuclear leukocyte pretreated for 15 mins measured after 4 hrs by cell migration assay.
On to `Cc1ccc(C(=O)c2ccc(CC(=O)O)n2C)cc1` [2-(1-methyl-5-(4-methylbenzoyl)-1H-pyrrol-2-yl)acetic acid], for which the IC50 is 0.09 µM.
The same measure, in the same setting: next, `Cc1ccc(Cl)c(Nc2ccccc2CC(=O)O)c1Cl` [2-(2-(2,6-dichloro-3-methylphenylamino)phenyl)acetic acid]: 0.5 µM.
Regarding `O=C(O)Cc1ccccc1Cc1c(Cl)cccc1Cl` [2-(2-(2,6-dichlorobenzyl)phenyl)acetic acid], the IC50 is greater than 1 µM.
On the same count and under the same terms, the same measure for `O=C(O)Cc1ccccc1Nc1c(F)cccc1F` [2-(2-(2,6-difluorophenylamino)phenyl)acetic acid]: greater than 1 µM.
On the same count and under the same terms, the same measure for `O=C(O)Cc1ccccc1Oc1ccccc1F` [2-(2-(2-fluorophenoxy)phenyl)acetic acid]: 0.013 µM; for `O=C(O)Cc1ccccc1Nc1ccccc1F` [2-(2-(2-fluorophenylamino)phenyl)acetic acid]: 0.009 µM; for `Cc1ccccc1Nc1ccccc1CC(=O)O` [2-(2-(o-tolylamino)phenyl)acetic acid]: greater than 1 µM.
Still for that read-out and setting: next, `O=C(O)Cc1cccc(C(=O)c2ccccc2)c1` [2-(3-benzoylphenyl)acetic acid]: greater than 1 µM; `CS(=O)(=O)NC(=O)Cc1ccccc1Oc1ccccc1F` [2-[2-(2-Fluorophenoxy)phenyl]-N-(methylsulfonyl)acetamide]: 0.05 µM.
Consider `CC(C(=O)NCCCN(C)C)c1ccccc1Nc1c(Cl)cccc1Cl` (stereo unspecified) [2-{2-[(2,6-Dichlorophenyl)amino]phenyl}-N,N'-[3,3-(dimethylamino)propyl]propanamide], for which the IC50 worked out at 0.025 µM.
Still for that read-out and setting: the same measure for `Cc1cccc(C)c1NC(=O)C(C)c1ccccc1Nc1c(Cl)cccc1Cl` (stereo unspecified) [2-{2-[(2,6-Dichlorophenyl)amino]phenyl}-N-(2,6-dimethylphenyl)propanamide]: 0.6 µM; for `CC(C(=O)NCCO)c1ccccc1Nc1c(Cl)cccc1Cl` (stereo unspecified) [2-{2-[(2,6-Dichlorophenyl)amino]phenyl}-N-(2-hydroxyethyl)propanamide]: 0.02 µM; for `CC(C(=O)NS(C)(=O)=O)c1ccccc1Nc1c(Cl)cccc1Cl` (stereo unspecified) [2-{2-[(2,6-Dichlorophenyl)amino]phenyl}-N-(methylsulfonyl)propanamide]: 0.013 µM.
As for `CC(C(N)=O)c1ccccc1Nc1c(Cl)cccc1Cl` (stereo unspecified) [2-{2-[(2,6-Dichlorophenyl)amino]phenyl}propanamide], the IC50 amounted to 0.012 µM.
Regarding `CC(C(=O)O)c1ccccc1Nc1c(Cl)cccc1Cl` (stereo unspecified) [2-{2-[(2,6-Dichlorophenyl)amino]phenyl}propanoic acid], the IC50 was 0.01 µM.
Take `CC(C(=O)NCCC[N+](C)(C)C)c1ccccc1Nc1c(Cl)cccc1Cl` (stereo unspecified) [3-(2-(2-(2,6-dichlorophenylamino)phenyl)propanamido)-N,N,N-trimethylpropan-1-aminium iodide]: the IC50 is greater than 1 µM.
The same measure, in the same setting: the same measure for `O=C(O)Cc1ccccc1Oc1ccccc1` [(2-Phenoxy-phenyl)-acetic acid]: greater than 1 µM; for `O=C(O)Cc1ccccc1Nc1ccccc1` [(2-Phenylamino-phenyl)-acetic acid]: greater than 1 µM; for `CC(C)Cc1ccc(CC(=O)O)cc1` [Ibufenac]: greater than 1 µM.
Take `CC(C(=O)NC(C)(C)C)c1ccccc1Nc1c(Cl)cccc1Cl` (stereo unspecified) [N-(tert-Butyl)-2-{2-[(2,6-dichlorophenyl)amino]phenyl}propanamide]: the IC50 turned out to be 0.65 µM.
The same measure, in the same setting: next, `O=C(O)Cc1ccccc1Nc1cc(Cl)ccc1Cl` [[2-(2,5-Dichloro-phenylamino)-phenyl]-acetic acid]: 0.025 µM; `O=C(O)Cc1ccccc1Oc1ccccc1Cl` [[2-(2-Chloro-phenoxy)-phenyl]-acetic acid]: 0.5 µM; `O=C(O)Cc1ccccc1Nc1ccccc1Cl` [[2-(2-Chloro-phenylamino)-phenyl]-acetic acid]: 0.4 µM.
Regarding `COc1ccc2c(c1)c(CC(=O)O)c(C)n2C(=O)c1ccc(Cl)cc1` [indometacin], the IC50 is 0.05 µM.
On the same count and under the same terms, the same measure for `O=C(O)Cc1ccccc1Nc1c(Cl)cccc1Cl` [{2-[(2,6-dichlorophenyl)amino]phenyl}acetic acid]: 0.008 µM.
